Test results taken from patent publication US10786484B2, “Mono- or di-substituted indole derivatives as dengue viral replication inhibitors” (Janssen Pharmaceuticals, Inc., priority 2015, dated 2020).

Experiments:
DENV-2 strain 16681 = assay: Tetravalent RT-qPCR assay Protocol A, serotype 2; assay type: cell-based; conditions: Dengue virus, DENV2, 72 h; RT-qPCR serotype 2 16681, Vero cells, day 3
Experimental: (§1) The antiviral activity of the compounds of the invention was tested against DENV-1 strain TC974#666 (NCPV), DENV-2 strain 16681, DENV-3 strain H87 (NCPV) and DENV-4 strains H241 (NCPV) and EDEN (SG/06K2270DK1/2005; GenBank accession number QG398256) in a RT-qPCR assay. Therefore, Vero cells were infected with either DENV-1, or -2, or -3, or -4 in the presence or absence of test compounds. At day 3 post-infection, the cells were lysed and cell lysates were used to prepare cDNA of both a viral target (the 3′UTR of DENV; Table 2) and a cellular reference gene (β-actin, Table 2). Subsequently, a duplex real time PCR was performed on a Lightcycler480 instrument. The generated Cp value is inversely proportional to the amount of RNA expression of these targets. Inhibition of DENV replication by a test compound results in a shift of Cp's for the 3′UTR gene. On the other hand, if a test compound is toxic to the cells, a similar effect on β-actin expression will be observed. The comparative ΔΔCp method is used to calculate EC50, which is based on the relative gene expression of the target gene (3′UTR) normalized with the cellular housekeeping gene (β-actin). In addition, CC50 values are determined based on the Cp values acquired for the housekeeping gene β-actin.
(§2) The culture medium consisted of minimal essential medium supplemented with 2% of heat-inactivated fetal calf serum, 0.04% gentamycin (50 mg/mL) and 2 mM of L-glutamine. Vero cells, obtained from ECACC, were suspended in culture medium and 75 μL/well was added in 96-well plates (10000 cells/well), which already contain the antiviral compounds. […] In addition, each plate contains wells which are assigned as virus controls (containing cells and virus in the absence of compound) and cell controls (containing cells in the absence of virus and compound). Once the cells were added in the plates, the plates were incubated in a fully humidified incubator (37° C., 5% CO2) until the next day. Dengue viruses serotype-1, 2, 3 and 4 were diluted in order to obtain a Cp of ˜22-24 in the assay. Therefore, 25 μL of virus suspension, was added to all the wells containing test compound and to the wells assigned as virus control. In parallel, 25 μL of culture medium was added to the cell controls. Next, the plates were incubated for 3 days in a fully humidified incubator (37° C., 5% CO2). After 3 days, the supernatant was removed from the wells and the cells were washed twice with ice-cold PBS (−100 μL). The cell pellets within the 96-well plates were stored at −80° C. for at least 1 day. Next, RNA was extracted using the Cells-to-CT™ lysis kit, according to the manufacturer's guideline (Life Technologies). The cell lysates can be stored at −80° C. or immediately used in the reverse transcription step.
(§3) In preparation of the reverse transcription step, mix A (table 3A) was prepared and 7.57 μL/well was dispensed in a 96-well plate. After addition of 5 μL of the cell lysates, a five minute denaturation step at 75° C. was performed (table 3B). Afterwards, 7.43 μL of mix B was added (table 3C) and the reverse transcription step was initiated (table 3D) to generate cDNA.
(§4) Finally, a RT-qPCR mix was prepared, mix C (table 4A), and 22.02 μL/well was dispensed in 96-well LightCycler qPCR plates to which 3 μL of cDNA was added and the qPCR was performed according to the conditions in table 4B on a LightCycler 480.
(§5) Using the LightCycler software and an in-house LIMS system, dose response curves for each compound were calculated and the half maximal effective concentration (EC50) and the half maximal cytotoxic concentration (CC50) were determined (Tables 5-8).

DENV-1 strain TC974#666 = assay: Tetravalent RT-qPCR assay Protocol A, serotype 1; assay type: cell-based; conditions: Dengue virus, DENV1, 72 h; RT-qPCR serotype 1 TC974#666, Vero cells, day 3
Experimental: as §1, §2, §3, §4, §5

DENV-3 strain H87 = assay: Tetravalent RT-qPCR assay Protocol A, serotype 3; assay type: cell-based; conditions: Dengue virus, DENV3, 72 h; RT-qPCR serotype 3 H87, Vero cells, day 3
Experimental: as §1, §2, §3, §4, §5

DENV-4 strain H241 = assay: Tetravalent RT-qPCR assay Protocol A, serotype 4 H241; assay type: cell-based; conditions: Dengue virus, DENV4, 72 h; RT-qPCR serotype 4 H241, Vero cells, day 3
Experimental: as §1, §2, §3, §4, §5

[1] = tested on: DENV-2 16681 strain labeled with eGFP; assay: DENV-2 antiviral assay (eGFP fluorescence read-out in Vero cells); assay type: cell-based, Dengue virus; conditions: DENV-2 16681 eGFP, MOI 0.5, 3 days
Experimental: The antiviral activity of all the compounds of the invention was tested against the DENV-2 16681 strain which was labeled with enhanced green fluorescent protein (eGPF). The culture medium consists of minimal essential medium supplemented with 2% of heat-inactivated fetal calf serum, 0.04% gentamycin (50 mg/mL) and 2 mM of L-glutamine. Vero cells, obtained from ECACC, were suspended in culture medium and 25 μL was added to 384-well plates (2500 cells/well), which already contain the antiviral compounds. Typically, these plates contain a 5-fold serial dilution of 9 dilution steps of the test compound at 200 times the final concentration in 100% DMSO (200 nL). […] Finally, each plate contains wells which are assigned as virus controls (containing cells and virus in the absence of compound), cell controls (containing cells in the absence of virus and compound) and medium controls (containing medium in the absence of cells, virus and compounds). To the wells assigned as medium control, 25 μL of culture medium was added instead of Vero cells. Once the cells were added to the plates, the plates were incubated for 30 minutes at room temperature to allow the cells to distribute evenly within the wells. Next, the plates were incubated in a fully humidified incubator (37° C., 5% CO2) until the next day. Then, DENV-2 strain 16681, labeled with eGFP, was added at a multiplicity of infection (MOI) of 0.5. Therefore, 15 μL of virus suspension was added to all the wells containing test compound and to the wells assigned as virus control. In parallel, 15 μL of culture medium was added to the medium and cell controls. Next, the plates were incubated for 3 days in a fully humidified incubator (37° C., 5% CO2). At the day of the read out, the eGFP fluorescence was measured using an automated fluorescence microscope at 488 nm (blue laser). Using an in-house LIMS system, inhibition dose response curves for each compound were calculated and the half maximal effective concentration (EC50) was determined. Therefore, the percent inhibition (I) for every test concentration is calculated using the following formula: I=100*([…])/(SVC−SCC); ST, SCC and SVC are the amount of eGFP signal in the test compound, cell control and virus control wells, respectively. The EC50 represents the concentration of a compound at which the virus replication is inhibited with 50%, as measured by a 50% reduction of the eGFP fluorescent intensity compared to the virus control. The EC50 is calculated using linear interpolation (Table 1).

in vitro [2] = conditions: African green monkey
[3] = tested on: DENV-4 strain EDEN (SG/06K2270DK1/2005); assay: Tetravalent RT-qPCR assay Protocol A, serotype 4 EDEN; assay type: cell-based; conditions: Dengue virus, DENV4, 72 h; RT-qPCR serotype 4 EDEN, Vero cells, day 3
Experimental: as §1, §2, §3, §4, §5

Vero cells = conditions: African green monkey
in vitro [4] = assay type: cell-based; conditions: African green monkey, CC50
Experimental: as §1, §2, §5

Row | Compound | EC50 (DENV-2 strain 16681) [nM] | EC50 (DENV-1 strain TC974#666) [nM] | EC50 (DENV-3 strain H87) [nM] | EC50 (DENV-4 strain H241) [nM] | EC50 [1] [nM] | CC50 (in vitro [2]) [nM] | EC50 [3] [nM] | CC50 (Vero cells) [nM] | CC50 at 3 days (in vitro [4]) [nM]
1 | COc1cc(NC(C(=O)c2c[nH]c3cc(F)ccc23)c2ccc(F)cc2OCCO)cc(S(C)(=O)=O)c1 (single isomer, unassigned) [Compound 1A, 1-(6-fluoro-1H-indol-3-yl)-2-(4-fluoro-2-(2-hydroxyethoxy)phenyl)-2-((3-methoxy-5-(methylsulfonyl)phenyl)amino)ethanone] | 1.1 | 8.5 | 68 | 290 | 0.78 | 8600 | 3.6 |  | 
2 | COc1cc(NC(C(=O)c2c[nH]c3cc(Cl)ccc23)c2ccc(F)cc2OCCO)cc(S(C)(=O)=O)c1 (single isomer, unassigned) [Compound 2A, 1-(6-chloro-1H-indol-3-yl)-2-(4-fluoro-2-(2-hydroxyethoxy)phenyl)-2-((3-methoxy-5-(methylsulfonyl)phenyl)amino)-ethanone] | 0.4 | 2.8 | 48 | 170 | 0.32 |  | 2.3 | 4900 | 4800
3 | COc1cc(NC(C(=O)c2c[nH]c3c(C)c(F)ccc23)c2ccc(F)cc2OCCO)cc(S(C)(=O)=O)c1 (single isomer, unassigned) [Compound 3A, 2-(4-fluoro-2-(2-hydroxyethoxy)phenyl)-1-(6-fluoro-7-methyl-1H-indol-3-yl)-2-((3-methoxy-5-(methylsulfonyl)phenyl)amino)ethanone] | 0.43 | 3.3 | 45 | 190 | 0.4 |  | 5.1 | 4000 | > 2500
4 | COc1cc(NC(C(=O)c2c[nH]c3c(C)c(Cl)ccc23)c2ccc(F)cc2OCCO)cc(S(C)(=O)=O)c1 (single isomer, unassigned) [Compound 4B, 1-(6-chloro-7-methyl-1H-indol-3-yl)-2-(4-fluoro-2-(2-hydroxyethoxy)phenyl)-2-((3-methoxy-5-(methylsulfonyl)phenyl)amino)ethanone] | 0.21 | 3.3 | 55 | 140 | 0.2 |  | 3.2 | 3800 | > 2500
5 | COc1cc(NC(C(=O)c2c[nH]c3cc(OC)c(C)cc23)c2ccc(F)cc2OCCO)cc(S(C)(=O)=O)c1 (single isomer, unassigned) [Compound 6A, 2-(4-fluoro-2-(2-hydroxyethoxy)phenyl)-2-((3-methoxy-5-(methylsulfonyl)phenyl)amino)-1-(6-methoxy-5-methyl-1H-indol-3-yl)ethanone] | 0.84 | 3.5 | 43 | 110 | 0.47 |  | 3.4 | 5600 | 
6 | COc1cc(NC(C(=O)c2c[nH]c3cc(F)c(C)cc23)c2ccc(F)cc2OCCO)cc(S(C)(=O)=O)c1 (single isomer, unassigned) [Compound 7A, 2-(4-fluoro-2-(2-hydroxyethoxy)phenyl)-1-(6-fluoro-5-methyl-1H-indol-3-yl)-2-((3-methoxy-5-(methylsulfonyl)phenyl)amino)ethanone] | 0.77 | 1.3 | 20 | 120 | 0.54 |  |  | 3100 | > 2400
7 | COc1cc(NC(C(=O)c2c[nH]c3c(C)cc(Cl)cc23)c2ccc(F)cc2OCCO)cc(S(C)(=O)=O)c1 (single isomer, unassigned) [Compound 9A, 1-(5-chloro-7-methyl-1H-indol-3-yl)-2-(4-fluoro-2-(2-hydroxyethoxy)phenyl)-2-((3-methoxy-5-(methylsulfonyl)phenyl)amino)ethanone] | 0.61 | 1.4 | 16 | 110 | 0.39 |  |  | 3200 | > 2500
8 | COc1cc(NC(C(=O)c2c[nH]c3ccc(OC(F)(F)F)cc23)c2ccc(F)cc2OCCO)cc(S(C)(=O)=O)c1 (single isomer, unassigned) [Compound 10B, 2-(4-fluoro-2-(2-hydroxyethoxy)phenyl)-2-((3-methoxy-5-(methylsulfonyl)phenyl)amino)-1-(5-(trifluoromethoxy)-1H-indol-3-yl)ethanone] | 0.057 | 0.2 | 2.1 | 12 | 0.12 |  |  | 2600 | > 2500
9 | COc1cc(NC(C(=O)c2c[nH]c3c(C)cc(OC(F)(F)F)cc23)c2ccc(F)cc2OCCO)cc(S(C)(=O)=O)c1 (single isomer, unassigned) [Compound 12A, 2-(4-fluoro-2-(2-hydroxyethoxy)phenyl)-2-((3-methoxy-5-(methylsulfonyl)phenyl)amino)-1-(7-methyl-5-(trifluoromethoxy)-1H-indol-3-yl)ethanone] | 0.075 | 0.2 | 3.2 | 14 | 0.099 |  |  | 2200 | > 1000
